Key:
[1] = system: cleaved (activated) form of caspase 3 in RS4; 11 tumour lysates; experiment: Quantification of the cleaved form of caspase 3 in vivo (MSD ELISA) in RS4; 11 xenograft; design: species or system mice (SCID strain); key: ratio of cleaved caspase 3, treated vs control mice; conditions: oral, 2 hours' treatment
Description: The ability of the compounds of the invention to activate caspase 3 is evaluated in a xenograft model of RS4; 11 leukaemia cells. 1×10^7 RS4; 11 cells are grafted sub-cutaneously into immunosuppressed mice (SCID strain). 25 to 30 days after the graft, the animals are treated orally with the various compounds. After 2 hours' treatment, the tumour masses are recovered and lysed, and the cleaved (activated) form of caspase 3 is quantified in the tumour lysates. This quantification is carried out using the “Meso Scale Discovery (MSD) ELISA platform” test, which specifically assays the cleaved form of caspase 3. It is expressed in the form of an activation factor corresponding to the ratio between the quantity of cleaved caspase 3 in the treated mice divided by the quantity of cleaved caspase 3 in the control mice.

Bcl-2 protein = Bcl-2 protein (histag-Bcl-2, UniProtKB P10415) (Homo sapiens, UniProt P10415); experiment: Inhibition of Bcl-2 by the fluorescence polarisation technique; format: binding; conditions: fluorescence polarisation, 2 hours incubation; read-out: IC50 (μM) Bcl-2 FP
Description: The fluorescence polarisation tests were carried out on microplates (384 wells). The Bcl-2 protein, labelled (histag-Bcl-2 such that Bcl-2 corresponds to the UniProtKB® primary accession number: P10415), at a final concentration of 5×10^−9M, is mixed with a fluorescent peptide (Fluorescein-REIGAQLRRMADDLNAQY), at a final concentration of 1.00×10^−9M in a buffer solution (Hepes 10 mM, NaCl 150 mM, Tween20 0.05%, pH 7.4), in the presence or absence of increasing concentrations of test compounds. After incubation for 2 hours, the fluorescence polarisation is measured.

[2] = system: RS4; 11 leukaemia tumour line; experiment: In vitro cytotoxicity, Microculture Tetrazolium Assay (MTT); format: cell-based; conditions: Homo sapiens, RS4-11, 48 h, 11 cells, 48 hours exposure
Description: The cytotoxicity studies were carried out on the RS4; 11 leukaemia tumour line.
The cells are distributed onto microplates and exposed to the test compounds for 48 hours.
The cell viability is then quantified by a colorimetric assay, the Microculture Tetrazolium Assay (Cancer Res., 1987, 47, 939-942).

Chain of Bcl-2 protein (P10415 whole entry): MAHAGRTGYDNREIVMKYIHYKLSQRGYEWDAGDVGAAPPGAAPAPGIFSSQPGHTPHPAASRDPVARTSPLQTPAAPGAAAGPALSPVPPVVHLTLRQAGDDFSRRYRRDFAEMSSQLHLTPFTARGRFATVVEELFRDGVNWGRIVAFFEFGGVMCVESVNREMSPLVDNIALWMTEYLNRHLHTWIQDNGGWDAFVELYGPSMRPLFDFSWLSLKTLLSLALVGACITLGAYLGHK

Row | IC50 (Bcl-2 protein) [µM] | SMILES | Activation factor ± SEM (versus control) ([1]; 25 mg/kg, PEG/EtOH/Water) | Activation factor ± SEM (versus control) ([1]; 50 mg/kg, PEG/EtOH/Water) | IC50 [2] [nM] | Activation factor ± SEM (versus control) ([1]; 6.25 mg/kg, PEG/EtOH/Phosal) | Activation factor ± SEM (versus control) ([1]; 12.5 mg/kg, PEG/EtOH/Phosal) | Activation factor ± SEM (versus control) ([1]; 25 mg/kg, PEG/EtOH/Phosal) | Activation factor ± SEM (versus control) ([1]; 50 mg/kg, PEG/EtOH/Phosal) | Activation factor ± SEM (versus control) ([1]; 12.5 mg/kg, PEG/EtOH/Watcr)
1 | 0.00555 | Cc1c2cc(n1C)-c1cc(Cl)ccc1C(=O)N1CCc3c(cccc3OCCc3c(cnn3C)N(c3ccc(O)cc3)C2=O)C1 [Example 16, 11-chloro-4-(4-hydroxyphenyl)-1,7,8-trimethyl-1,4,16,17,23,24-hexahydro-14H-15,18-methano-6,9-(metheno)dibenzo[l,r]pyrazolo[3,4-d][1,6,10,15]oxatriaza-cyclononadecine-5,14(8H)-dione] | 31.7 ± 2.9 | 75.1 ± 13.2 | 53.3 |  |  |  |  | 
2 | 0.00365 | Cc1c2cc(n1C)-c1cc(Cl)ccc1C(=O)N1CCc3c(cccc3OCCCc3c(cc(C#N)n3C)N(c3ccc(O)cc3)C2=O)C1 [Example 18, 11-Chloro-4-(4-hydroxyphenyl)-1,7,8-trimethyl-5,14-dioxo-4,5,8,16,17,23,24,25-octahydro-1H,14H-15,18-methano-6,9-(metheno)dibenzo[b,h]-pyrrolo[3,2-p][1,6,11,15]oxatriazacycloicosine-2-carbonitrile] |  |  | 8.36 | 7.8 ± 2.5 | 31.7 ± 6.0 |  |  | 
3 |  | Cc1c(N2C(=O)c3cc(n(C)c3C)-c3cc(Cl)ccc3C(=O)N3CCCC(CCOc4cc(O)ccc42)C3)cc(C#N)n1C (stereo not drawn) [Example 29, 4-[16-Chloro-3-hydroxy-19,20-dimethyl-13,22-dioxo-6,7,8,9,10,11,19,22-octahydro-13H,23H-8,12-methano-21,18-(metheno)dibenzo[b,j][1,4,8,13]oxatriazacyclo-nonadecin-23-yl]-1,5-dimethyl-1H-pyrrole-2-carbonitrile] |  |  | 70.5 |  |  | 13.3 ± 6.3 | 54.4 ± 9.7 | 
4 | 0.0052 | Cc1c2cc(n1C)-c1cc(Cl)ccc1C(=O)N1CCc3c(cccc3OCCCc3c(cnn3C)N(c3ccc(O)cc3)C2=O)C1 [Example 6, 11-Chloro-4-(4-hydroxyphenyl)-1,7,8-trimethyl-4,16,17,23,24,25-hexahydro-1H,14H-15,18-methano-6,9-(metheno)dibenzo[b,h]pyrazolo[4,3-p]-[1,6,11,15]oxatriazacycloicosine-5,14(8H)-dione] | 32.3 ± 9.1 |  | 26.6 |  |  |  |  | 6.8 ± 4.2

Reference: US11833162B2, “Macrocyclic derivatives, process for preparing same and pharmaceutical compositions containing same” (LES LABORATOIRES SERVIER, priority 2017, dated 2023)
